Values joined by “and” are separate entries in the source; they are usually repeats but may differ in a detail not shown here. Equal entries are not always repeated. Where two headings read alike, the source gives them in different places.
Key:
[1] = Visual solubility test of compound 5 in aqueous acid solution; assay type: physicochemical
Description: A visual solubility test (100 μL) at a series of target concentrations of 50, 100 or 200 mg/mL of compound 5 in aqueous acid solution was performed.
In a 96 well plate (400-600 μL), compound 5 was dispensed (5, 10, or 20 mg per well), acid was added (100 μl of a 350 mM solution in water to each well) and the mixtures were equilibrated at 25° C. with stirring. Solubility was checked by visual inspection after 30 min and after one day.

[2] = PK studies of formulations, plasma by HPLC-MS/MS; assay type: in vivo; details: Cattle
Description: The following formulations were prepared and administered to animals. Blood samples were collected at pre-defined time points and the amount of compound present in plasma at the time of sampling was determined by HPLC-MS/MS. Pharmacokinetic parameters were then calculated: Cmax, Tmax, Tlast, AUC. [table]

[3] = Formulation with 10% compound 5: stability of clear solution; assay type: physicochemical; details: 10% formulation (~100 mg/ml)
[4] = Acetic Acid 350 mM in water, 25° C.
[5] = Ethanesulfonic Acid 350 mM in water
[6] = Glucuronic Acid 350 mM in water
[7] = Glutamic Acid 350 mM in water, 25° C.
[8] = Methanesulfonic Acid 350 mM in water
[9] = Methanesulfonic Acid 350 mM in water, 25° C.
[10] = Nicotinic Acid 350 mM in water, 25° C.
[11] = Oxoglutaric Acid 350 mM in water
[12] = lsethionic Acid 350 mM in water
[13] = lsethionic Acid 350 mM in water, 25° C.
[14] = FormO50 (L-tartaric acid, NaOH up to pH 4.4, water), SC, 1 mg/kg
[15] = FormO50 (L-tartaric acid, NaOH up to pH 4.4, water), SC, 5 mg/kg
[16] = FormO100 (L-tartaric acid, NaOH up to pH 4.4, water), SC, 1.5 mg/kg

pH for 50 mg/mL ([1]; Acetic Acid 350 mM in water): 5.09 | pH for 100 mg/mL ([1]; Acetic Acid 350 mM in water): 5.02 | pH for 200 mg/mL ([1]; Acetic Acid 350 mM in water): 5.06 | Range at 1 Day [1, 4]: <58 mg/mL | Range at 30 mins. [1, 4]: <58 mg/mL | pH for 50 mg/mL ([1]; Benzoic Acid 350 mM in water): 4.94 | pH for 100 mg/mL ([1]; Benzoic Acid 350 mM in water): 5.23 | pH for 200 mg/mL ([1]; Benzoic Acid 350 mM in water): 5.20 | pH for 50 mg/mL ([1]; Citric Acid 350 mM in water): 3.36 | pH for 100 mg/mL ([1]; Citric Acid 350 mM in water): 4.06 | pH for 200 mg/mL ([1]; Citric Acid 350 mM in water): 4.84 | pH for 50 mg/mL [1, 5]: 0.96 | pH for 100 mg/mL [1, 5]: 1.17 | pH for 200 mg/mL [1, 5]: 4.99 | pH for 50 mg/mL ([1]; Fumaric Acid 350 mM in water): 3.59 | pH for 100 mg/mL ([1]; Fumaric Acid 350 mM in water): 3.89 | pH for 200 mg/mL ([1]; Fumaric Acid 350 mM in water): 4.86 | pH for 50 mg/mL [1, 6]: 3.60 | pH for 100 mg/mL [1, 6]: 4.86 | pH for 200 mg/mL [1, 6]: 4.80 | pH for 50 mg/mL ([1]; Glutamic Acid 350 mM in water): 5.11 | pH for 100 mg/mL ([1]; Glutamic Acid 350 mM in water): 5.05 | pH for 200 mg/mL ([1]; Glutamic Acid 350 mM in water): 5.14 | Range at 1 Day [1, 7]: <53 mg/mL | Range at 30 mins. [1, 7]: <53 mg/mL | pH for 50 mg/mL ([1]; Lactic Acid 350 mM in water): 4.50 | pH for 100 mg/mL ([1]; Lactic Acid 350 mM in water): 4.88 | pH for 200 mg/mL ([1]; Lactic Acid 350 mM in water): 4.94 | pH for 50 mg/mL ([1]; Malic Acid 350 mM in water): 3.68 | pH for 100 mg/mL ([1]; Malic Acid 350 mM in water): 4.45 | pH for 200 mg/mL ([1]; Malic Acid 350 mM in water): 4.78 | pH for 50 mg/mL [1, 8]: 7.60 | pH for 100 mg/mL [1, 8]: 7.61 | pH for 200 mg/mL [1, 8]: 7.31 | Range at 1 Day [1, 9]: <52 mg/mL | Range at 30 mins. [1, 9]: <52 mg/mL | pH for 50 mg/mL ([1]; Nicotinic Acid 350 mM in water): 5,25 | pH for 100 mg/mL ([1]; Nicotinic Acid 350 mM in water): 5.15 | pH for 200 mg/mL ([1]; Nicotinic Acid 350 mM in water): 5.16 | Range at 1 Day [1, 10]: <74 mg/mL | Range at 30 mins. [1, 10]: <74 mg/mL | pH for 50 mg/mL ([1]; Oxalic Acid 350 mM in water): 1.81 | pH for 100 mg/mL ([1]; Oxalic Acid 350 mM in water): 3.27 | pH for 200 mg/mL ([1]; Oxalic Acid 350 mM in water): 4.81 | pH for 50 mg/mL [1, 11]: 2.66 | pH for 100 mg/mL [1, 11]: 4.17 | pH for 200 mg/mL [1, 11]: 4.89 | pH for 50 mg/mL ([1]; Succinic Acid 350 mM in water): 4.57 | pH for 100 mg/mL ([1]; Succinic Acid 350 mM in water): 5.01 | pH for 200 mg/mL ([1]; Succinic Acid 350 mM in water): 4.99 | pH for 50 mg/mL ([1]; Tartaric Acid 350 mM in water): 2.92 | pH for 100 mg/mL ([1]; Tartaric Acid 350 mM in water): 3.71 | pH for 200 mg/mL ([1]; Tartaric Acid 350 mM in water): 4.70 | solubility at 30 min ([1]; aqueous acid solution, aqueous buffer, thermodynamic from solid, Benzoic Acid 350 mM in water, 25° C., read-out: Range at 30 mins.): < 49 mg/mL | pH for 50 mg/mL [1, 12]: 7.83 | pH for 100 mg/mL [1, 12]: 7.85 | pH for 200 mg/mL [1, 12]: 7.93 | Range at 1 Day [1, 13]: <52 mg/mL | Range at 30 mins. [1, 13]: <52 mg/mL | solubility (in words) ([1]; with nicotinic acid, methanesulfonic acid, isethionic acid, benzoic acid, acetic acid and glutamic acid): poor solubility | solubility (in words) ([1]; with tartaric acid, fumaric acid, citric acid, malic acid, oxalic acid, oxoglutaric acid and ethanesulfonic acid): good solubility | Tlast ([2]; FormO50 (L-tartaric acid, NaOH up to pH 4.4, water), SC, 0.5 mg/kg): 4.4 h | Tlast ([2]; FormO50 (L-tartaric acid, NaOH up to pH 4.4, water), SC, 0.75 mg/kg): 5.6 h | AUC [2, 14]: 1149 ng·h/mL and 969 ng·h/mL | Cmax [2, 14]: 705 ng/mL and 815 ng/mL | Tlast [2, 14]: 6 h and 7 h and 6.8 h | AUC [2, 15]: 8817 ng·h/mL | Cmax [2, 15]: 5975 ng/mL | Tlast [2, 15]: 8 h | Tlast ([2]; FormO50 (L-tartaric acid, NaOH up to pH 4.4, water), SC, 10 mg/kg): 12 h | AUC [2, 16]: 1422 ng·h/mL | Cmax [2, 16]: 862 ng/mL | Tlast [2, 16]: 10.0 h and 8.5 h | Tmax [2, 16]: 22.8 min | Tlast ([2]; FormU100 (L-tartaric acid, propylene glycol 400 mg, benzylalcohol, water), SC, 1.5 mg/kg): 10.0 h | Tlast ([2]; FormV100 (L-tartaric acid, propylene glycol 500 mg, benzylalcohol, water), SC, 1.5 mg/kg): 10.0 h | Tlast ([2]; FormW100 (L-tartaric acid, propylene glycol 300 mg, benzylalcohol, water), SC, 1.5 mg/kg): 9.5 h | AUC ([2]; bovine, plasma, sc, 0.5 mg/kg, pH 4.4, FormO50 (L-tartaric acid, NaOH up to pH 4.4, water), 0.5 mg/kg, read-out: AUC): 371 ng·h/mL | Cmax ([2]; bovine, plasma, sc, 0.5 mg/kg, pH 4.4, FormO50 (L-tartaric acid, NaOH up to pH 4.4, water), 0.5 mg/kg, read-out: Cmax): 305 ng/mL | Tmax ([2]; bovine, plasma, sc, 0.5 mg/kg, pH 4.4, FormO50 (L-tartaric acid, NaOH up to pH 4.4, water), 0.5 mg/kg, read-out: Tmax): 18 min | AUC ([2]; bovine, plasma, sc, 0.75 mg/kg, pH 4.4, FormO50 (L-tartaric acid, NaOH up to pH 4.4, water), 0.75 mg/kg, read-out: AUC): 616 ng·h/mL | Cmax ([2]; bovine, plasma, sc, 0.75 mg/kg, pH 4.4, FormO50 (L-tartaric acid, NaOH up to pH 4.4, water), 0.75 mg/kg, read-out: Cmax): 397 ng/mL | Tmax ([2]; bovine, plasma, sc, 0.75 mg/kg, pH 4.4, FormO50 (L-tartaric acid, NaOH up to pH 4.4, water), 0.75 mg/kg, read-out: Tmax): 30 min | AUC ([2]; bovine, plasma, sc, 1 mg/kg, pH 4.4, FormO50 (L-tartaric acid, NaOH up to pH 4.4, water), 1 mg/kg, read-out: AUC): 973 ng·h/mL | Cmax ([2]; bovine, plasma, sc, 1 mg/kg, pH 4.4, FormO50 (L-tartaric acid, NaOH up to pH 4.4, water), 1 mg/kg, read-out: Cmax): 521 ng/mL | Tmax ([2]; bovine, plasma, sc, 1 mg/kg, pH 4.4, FormO50 (L-tartaric acid, NaOH up to pH 4.4, water), 1 mg/kg, read-out: Tmax): 36 min | AUC ([2]; bovine, plasma, sc, 1.5 mg/kg, FormU100 (L-tartaric acid, propylene glycol 400 mg, benzylalcohol, water), 1.5 mg/kg, read-out: AUC): 1680 ng·h/mL | Cmax ([2]; bovine, plasma, sc, 1.5 mg/kg, FormU100 (L-tartaric acid, propylene glycol 400 mg, benzylalcohol, water), 1.5 mg/kg, read-out: Cmax): 593 ng/mL | Tmax ([2]; bovine, plasma, sc, 1.5 mg/kg, FormU100 (L-tartaric acid, propylene glycol 400 mg, benzylalcohol, water), 1.5 mg/kg, read-out: Tmax): 37.8 min | AUC ([2]; bovine, plasma, sc, 1.5 mg/kg, FormV100 (L-tartaric acid, propylene glycol 500 mg, benzylalcohol, water), 1.5 mg/kg, read-out: AUC): 1520 ng·h/mL | Cmax ([2]; bovine, plasma, sc, 1.5 mg/kg, FormV100 (L-tartaric acid, propylene glycol 500 mg, benzylalcohol, water), 1.5 mg/kg, read-out: Cmax): 540 ng/mL | Tmax ([2]; bovine, plasma, sc, 1.5 mg/kg, FormV100 (L-tartaric acid, propylene glycol 500 mg, benzylalcohol, water), 1.5 mg/kg, read-out: Tmax): 105 min | AUC ([2]; bovine, plasma, sc, 1.5 mg/kg, FormW100 (L-tartaric acid, propylene glycol 300 mg, benzylalcohol, water), 1.5 mg/kg, read-out: AUC): 1520 ng·h/mL | Cmax ([2]; bovine, plasma, sc, 1.5 mg/kg, FormW100 (L-tartaric acid, propylene glycol 300 mg, benzylalcohol, water), 1.5 mg/kg, read-out: Cmax): 743 ng/mL | Tmax ([2]; bovine, plasma, sc, 1.5 mg/kg, FormW100 (L-tartaric acid, propylene glycol 300 mg, benzylalcohol, water), 1.5 mg/kg, read-out: Tmax): 52.8 min | AUC ([2]; bovine, plasma, sc, 1.5 mg/kg, pH 4.4, FormO100 (L-tartaric acid, NaOH up to pH 4.4, water), 1.5 mg/kg, read-out: AUC): 1680 ng·h/mL | Cmax ([2]; bovine, plasma, sc, 1.5 mg/kg, pH 4.4, FormO100 (L-tartaric acid, NaOH up to pH 4.4, water), 1.5 mg/kg, read-out: Cmax): 1010 ng/mL | Tmax ([2]; bovine, plasma, sc, 1.5 mg/kg, pH 4.4, FormO100 (L-tartaric acid, NaOH up to pH 4.4, water), 1.5 mg/kg, read-out: Tmax): 18.6 min | AUC ([2]; bovine, plasma, sc, 5 mg/kg, pH 4.4, FormO50 (L-tartaric acid, NaOH up to pH 4.4, water), 5 mg/kg, read-out: AUC): 7890 ng·h/mL | Cmax ([2]; bovine, plasma, sc, 5 mg/kg, pH 4.4, FormO50 (L-tartaric acid, NaOH up to pH 4.4, water), 5 mg/kg, read-out: Cmax): 3310 ng/mL | Tmax ([2]; bovine, plasma, sc, 5 mg/kg, pH 4.4, FormO50 (L-tartaric acid, NaOH up to pH 4.4, water), 5 mg/kg, read-out: Tmax): 24 min | AUC ([2]; bovine, plasma, sc, 10 mg/kg, pH 4.4, FormO50 (L-tartaric acid, NaOH up to pH 4.4, water), 10 mg/kg, read-out: AUC): 18800 ng·h/mL | Cmax ([2]; bovine, plasma, sc, 10 mg/kg, pH 4.4, FormO50 (L-tartaric acid, NaOH up to pH 4.4, water), 10 mg/kg, read-out: Cmax): 5930 ng/mL | Tmax ([2]; bovine, plasma, sc, 10 mg/kg, pH 4.4, FormO50 (L-tartaric acid, NaOH up to pH 4.4, water), 10 mg/kg, read-out: Tmax): 36 min | stability (remains clear solution) ([3]; pH of 4.4, equimolar Citric acid): 3 months | stability (remains clear solution) ([3]; pH of 4.4, equimolar Malic acid): 3 months | stability (remains clear solution) ([3]; pH of 4.4, equimolar Tartaric acid): 3 months
SMILES: COc1cc(NCCNC(=O)/C=C/C(C)(F)F)ccn1 [Compound 5]

Reference: patent publication US20210107874A1, “PHARMACEUTICAL FORMULATION OF CROTONYLAMINOPYRIDINE SALT” (priority 2017, published 2021)
